The values below come from patent US20230303599A1, “PRODRUGS OF PHOSPHONAMIDE NUCLEOTIDE ANALOGUES AND THEIR PHARMACEUTICAL USE” (priority 2020, published 2023).

Values after ≈ are worked out from the molar mass of the structure shown.

Series [1] is described as follows: Kinetic solubility analysis. The class given is physicochemical. As to conditions: 1× PBS, 24.2 °C, aqueous buffer, kinetic from dmso stock; pH 7.4 PBS, 1% DMSO, 24-hour incubation at ambient temperature. The method in brief:
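Compounds from 10 mM DMSO stocks were incubated in 0.1 N HCl or 1× PBS pH 7.4 (1.0% DMSO, 100 μM maximum theoretical) for 24 h at 24.2-27.5 °C, then vacuum filtered. Filtrates were quantified in μM by chemiluminescent nitrogen detection against a calibration curve, corrected for background nitrogen; values for adjacent ring-nitrogen compounds were raised ~25%.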

The nature of series [2]: Cytotoxicity assay in MT-4 cells. It counts as cell-based. The settings on record: human, uninfected MT-4 cells, average of at least two independent experiments, read-out: MT4 CC50. How it is done: Compounds were tested in a high-throughput 384-well assay format for their ability to inhibit the replication of HIV-1 (IIIB) in MT-4 cells. Compounds were serially diluted (1:3) in DMSO on 384-well polypropylene plates and further diluted 200-fold into complete RPMI media (10% FBS, 1% P/S) using the Biotek Micro Flow and Labcyte ECHO acoustic dispenser. Each plate contained up to 8 test compounds, with negative (no drug) and positive (5 μM AZT) controls. MT-4 cells were pre-treated with 10 μL of either RPMI (mock-infected) or a fresh 1:250 dilution of HIV-1 IIIB concentrated virus stock. Infected and uninfected MT-4 cells were further diluted in complete RPMI media and added to each plate using a Micro Flow dispenser. After 5 days incubation in a humidified and temperature-controlled incubator (37° C.), Cell Titer Glo (Promega) was added to the assay plates and chemiluminescence read using an Envision plate-reader. EC50 values were defined as the compound concentration that causes a 50% decrease in luminescence signal and were calculated using a sigmoidal dose-response model to generate curve fits and are shown in Table 1.
Example 105: Cytotoxicity Assay in MT-4 Cells
Assays were performed as described in Example 104 except uninfected MT-4 cells were added to each well containing test compound. In addition, 10 μM puromycin was added to the last column of each assay plate to assess a base level of cytotoxicity.

The subject of series [3] is HBV. Nature of the series: Antiviral (HBV) assay in primary human hepatocytes (PHHs). It counts as cell-based. As to conditions: Hepatitis B virus, Hepatocyte, 120 h; HBV (GTD) infected PHH, 5 days, HBV DNA in supernatant; average of at least two independent experiments. As for the experimental part: Example 106: Antiviral (HBV) Assay in Primary Human Hepatocytes (PHHs)
Cryopreserved PHH were thawed, recovered by centrifugation at 100 g in cryopreserved hepatocyte recovery medium (Thermo Fisher Scientific; CM7500), and plated on collagen matrix (Life Technologies; Catalog Number: R-011-K) coated T225 flasks (Corning CellBIND, Catalog Number: 3293) at a density of 25E6 live cells in 60 mls media. Cells were plated in William's E medium (Thermo Fisher Scientific; A1217601) supplemented with 3.6% hepatocyte thawing and plating supplement (Thermo Fisher Scientific, A15563), 5% fetal bovine serum (Thermo Fisher Scientific; 16000-036), 1 μM dexamethasone (Thermo Fisher Scientific, A15563), and 0.2% Torpedo antibiotic mix (Bioreclamation; Z990008). The plating medium was removed after 14 hours and the cells were subsequently cultured in maintenance medium: William's E medium supplemented with 4% hepatocyte maintenance supplement (Thermo Fisher Scientific; AI15564), 2% fetal bovine serum, 0.1μ M dexamethasone, 1.5% DMSO (Sigma-Aldrich, St. Louis, MO; D8418), and 0.2% Torpedo antibiotic mix. Approximately 24 hours after plating, PHH were infected with HepAD38-derived GTD virus at 500 viral genome equivalents per cell in PHH maintenance medium supplemented with 4% PEG 8000 (Promega, Madison, WI; V3011). Infections were allowed to proceed for 24 hours before removing the remaining extracellular virions by washing with maintenance medium three times. After allowing viral infection to take place for 3 days, the infected cells were harvested from the flasks by trypsinization (0.25X in PBS without Ca/Mg, 25 minutes) following a 4 minute 0.5X Versene (Life Technologies Catalog Number: 15040-066) treatment and two PBS washes. Trypsinized cells were inactivated in 10% FBS containing maintenance medium, centrifuged 6 minutes at 50 g, resuspended in hepatocyte maintenance medium, filtered through a 40 uM cell strainer, and adjusted to a density of 0.25E6 cells/ml. Infected cells were seeded on 384 well collagen coated plates (Greiner, Austria) at a density of 20,000 cells/well containing serially diluted compounds of the present disclosure or DMSO (0.5%) in a final volume of 80 μl. The assay plates were incubated for a period of 5 days and the antiviral activity of the test compounds were assayed by detecting the presence of HBV DNA in the culture supernatant using the QuantiGene™ 2.0 nucleic acid quantification kit (Affymetrix, Santa Clara, CA).

Series [4] is described as follows: Cytotoxicity assay in primary human hepatocytes (PHHs). As to conditions: HBV-infected primary human hepatocytes, HBV-infected PHH, Cell Titer Glo, average of at least two independent experiments. It counts as cell-based. As for the experimental part: Example 107: Cytotoxicity Assay in Primary Human Hepatocytes (PHHs)
The HBV-infected primary human hepatocytes are seeded (20K cells/well in 80 uL of Media) in 384well collagen coated plates pre-spotted with compounds. After 5 days, 40 ul of cell supernatant is removed to quantify HBV DNA levels as described in Example 106. Then, 40 ul Cell Titer Glo Reagent (Promega Catalog Number: G7572) is added to the remaining cells and luminescence is measured on the EnVision microplate reader.

The term kinetic solubility denotes solubility judged after dilution from a stock solution rather than from solid. The CC50 is the concentration that lowers cell viability or growth by half. For orientation: EC50 means the midpoint of the concentration-response curve. A higher EC50 goes with a less potent agent. The compound `CCCCCCOC(=O)C(C)(C)NP(=O)(CO[C@H](C)Cn1cnc2c(N)ncnc21)NC(C)(C)C(=O)OCCCCCC` [Example 1, Dihexyl 2,2′-(((((1-(6-amino-9H-purin-9-yl)propan-2-yl)oxy)methyl)phosphoryl)bis(azanediyl))(R)-bis(2-methylpropanoate)] had a solubility (kinetic) at 24 h in series [1] of 33 µg/mL (≈ 52.7 µM). Besides, the CC50 at 5 days is 4.99 µM in series [2] and more than 0.1 µM in series [4]. The compound also had an EC50 in series [3] of 0.00196 µM.
The like results for `CCC(CC)COC(=O)C(C)(C)NP(=O)(CO[C@H](C)Cn1cnc2c(N)ncnc21)NC(C)(C)C(=O)OCC(CC)CC` [Example 2, Bis(2-ethylbutyl) 2,2′-(((((1-(6-amino-9H-purin-9-yl)propan-2-yl)oxy)methyl)phosphoryl)bis(azanediyl))(R)-bis(2-methylpropanoate)] were, in that order, 65 µg/mL (≈ 104 µM), 6.09 µM, more than 1 µM and 0.00069 µM.
The corresponding values for `C[C@H](Cn1cnc2c(N)ncnc21)OCP(=O)(NC(C)(C)C(=O)OCCC1CCCCC1)NC(C)(C)C(=O)OCCC1CCCCC1` [Example 14, Bis(2-cyclohexylethyl) 2,2′-(((((1-(6-amino-9H-purin-9-yl)propan-2-yl)oxy)methyl)phosphoryl)bis(azanediyl))(R)-bis(2-methylpropanoate)] are 27 µg/mL (≈ 39.8 µM), 3.19 µM, more than 0.1 µM and 0.00257 µM.
The corresponding values for `C[C@H](Cn1cnc2c(N)ncnc21)OCP(=O)(NC(C)(C)C(=O)O[C@H]1CC[C@H](C(F)(F)F)CC1)NC(C)(C)C(=O)O[C@H]1CC[C@H](C(F)(F)F)CC1` [Example 21, Bis(trans-4-(trifluoromethyl)cyclohexyl) 2,2′-((((((R)-1-(6-amino-9H-purin-9-yl)propan-2-yl)oxy)methyl)phosphoryl)bis(azanediyl))bis(2-methylpropanoate)] are 39 µg/mL (≈ 51.5 µM), 4.47 µM, more than 0.1 µM and 0.00355 µM.
In series [1], `CCCCCCOC(=O)C(C)(C)NP(=O)(CO[C@H](C)Cn1cnc2c(NC(=O)OCc3oc(=O)oc3C)ncnc21)NC(C)(C)C(=O)OCCCCCC` [Example 33, Dihexyl 2,2′-(((((1-(6-((((5-methyl-2-oxo-1,3-dioxol-4-yl)methoxy)carbonyl)amino)-9H-purin-9-yl)propan-2-yl)oxy)methyl)phosphoryl)bis(azanediyl))(R)-bis(2-methylpropanoate)] displayed a solubility (kinetic) at 24 h of 14 µg/mL (≈ 17.9 µM). Besides, the CC50 at 5 days in series [2] is 6.62 µM; in series [4] it was more than 0.1 µM. Also, in series [3], the EC50 was found to be 0.00262 µM.
Take `CCCCCCCCOC(=O)C(C)(C)NP(=O)(CO[C@H](C)Cn1cnc2c(N)ncnc21)NC(C)(C)C(=O)OCCCCCCCC` [Example 39, Dioctyl 2,2′-(((((1-(6-amino-9H-purin-9-yl)propan-2-yl)oxy)methyl)phosphoryl)bis(azanediyl))(R)-bis(2-methylpropanoate)]: the figures for the CC50 at 5 days in series [2] and in series [4] were 7.27 µM and more than 0.1 µM, respectively. This compound came in with an EC50 in series [3] of 0.0045 µM.
As to `C[C@H](Cn1cnc2c(N)ncnc21)OCP(=O)(NC(C)(C)C(=O)OCC1CCCCC1)NC(C)(C)C(=O)OCC1CCCCC1` [Example 46, Bis(cyclohexylmethyl) 2,2′-(((((1-(6-amino-9H-purin-9-yl)propan-2-yl)oxy)methyl)phosphoryl)bis(azanediyl))(R)-bis(2-methylpropanoate)], the kinetic solubility at 24 h in series [1] is less than 1 µg/mL. For the same compound, the CC50 at 5 days in series [2] was 4.16 µM; in series [4] it was more than 0.1 µM. This compound came in with an EC50 in series [3] of 0.00251 µM.
The corresponding values for `C[C@H](Cn1cnc2c(N)ncnc21)OCP(=O)(NC(C)(C)C(=O)OCC12CCC(CC1)CC2)NC(C)(C)C(=O)OCC12CCC(CC1)CC2` [Example 48, Bis(bicyclo[2.2.2]octan-1-ylmethyl) 2,2′-(((((1-(6-amino-9H-purin-9-yl)propan-2-yl)oxy)methyl)phosphoryl)bis(azanediyl))(R)-bis(2-methylpropanoate)] are less than 1 µg/mL, 3.34 µM, more than 0.1 µM and 0.00463 µM.
The like results for `CCC1(CC)CC(OC(=O)C(C)(C)NP(=O)(CO[C@H](C)Cn2cnc3c(N)ncnc32)NC(C)(C)C(=O)OC2CC(CC)(CC)C2)C1` [Example 49, Bis(3,3-diethylcyclobutyl) 2,2′-(((((1-(6-amino-9H-purin-9-yl)propan-2-yl)oxy)methyl)phosphoryl)bis(azanediyl))(R)-bis(2-methylpropanoate)] were, in that order, 4 µg/mL (≈ 5.9 µM), 5.21 µM, more than 0.1 µM and 0.00545 µM.
The like results for `C[C@H](Cn1cnc2c(N)ncnc21)OCP(=O)(NC(C)(C)C(=O)OCC1CC2(CCC2)C1)NC(C)(C)C(=O)OCC1CC2(CCC2)C1` (stereo partly drawn) [Example 50, Bis(spiro[3.3]heptan-2-ylmethyl) 2,2′-(((((1-(6-amino-9H-purin-9-yl)propan-2-yl)oxy)methyl)phosphoryl)bis(azanediyl))(R)-bis(2-methylpropanoate)] were, in that order, less than 1 µg/mL, 8.06 µM, more than 0.1 µM and 0.0031 µM.
With `C[C@H](Cn1cnc2c(N)ncnc21)OCP(=O)(NC(C)(C)C(=O)OCC1CCCCCC1)NC(C)(C)C(=O)OCC1CCCCCC1` [Example 89, Bis(cycloheptylmethyl) 2,2′-(((((1-(6-amino-9H-purin-9-yl)propan-2-yl)oxy)methyl)phosphoryl)bis(azanediyl))(R)-bis(2-methylpropanoate)], the CC50 at 5 days in series [2] is 5.1 µM; in series [4], more than 0.1 µM. The EC50 in series [3] came to 0.00242 µM.
The corresponding values for `C[C@H](Cn1cnc2c(N)ncnc21)OCP(=O)(NC(C)(C)C(=O)OC[C@H]1CC[C@H](C)CC1)NC(C)(C)C(=O)OC[C@H]1CC[C@H](C)CC1` [Example 91, Bis((trans-4-methylcyclohexyl)methyl) 2,2′-((((((R)-1-(6-amino-9H-purin-9-yl)propan-2-yl)oxy)methyl)phosphoryl)bis(azanediyl))bis(2-methylpropanoate)] are 4.92 µM, more than 0.1 µM and 0.00376 µM.
